Article PMC10970622, “Functional Characterization of Endo- and Exo-Hydrolase Genes in Arabinan Degradation Gene Cluster of Bifidobacterium longum subsp. suis” (International Journal of Molecular Sciences, 2024)

Key:
[1] = molecular target: T1, BflsABN43B (Bifidobacterium longum, UniProt A0A087B7X0); experiment: TLC of hydrolysis products; assay type: biochemical; details: 0.5% substrate, optimal conditions (pH 6.0, 50 °C)
T1 construct: gene BLSS_1420; full length, 581 aa, 65 kDa, C-terminal His6, E. coli BL21(DE3); starts MTATTS by primer
T1 sequence (A0A087B7X0 1-581): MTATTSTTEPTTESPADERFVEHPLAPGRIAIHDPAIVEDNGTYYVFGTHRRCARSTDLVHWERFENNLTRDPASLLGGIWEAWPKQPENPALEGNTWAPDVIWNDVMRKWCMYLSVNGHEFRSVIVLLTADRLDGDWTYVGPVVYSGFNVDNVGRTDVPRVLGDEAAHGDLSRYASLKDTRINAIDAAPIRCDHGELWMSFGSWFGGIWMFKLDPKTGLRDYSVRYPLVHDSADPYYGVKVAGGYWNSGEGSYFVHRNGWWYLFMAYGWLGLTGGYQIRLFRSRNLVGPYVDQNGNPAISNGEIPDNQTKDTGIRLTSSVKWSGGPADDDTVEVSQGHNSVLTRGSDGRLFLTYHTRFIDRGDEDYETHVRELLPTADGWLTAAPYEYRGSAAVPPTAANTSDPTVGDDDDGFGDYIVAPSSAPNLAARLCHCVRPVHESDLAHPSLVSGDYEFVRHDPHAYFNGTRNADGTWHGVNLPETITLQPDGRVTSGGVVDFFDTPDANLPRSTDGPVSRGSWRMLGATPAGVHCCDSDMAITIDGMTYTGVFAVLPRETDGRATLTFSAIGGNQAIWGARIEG

[2] = molecular target: T2, BflsABN43A (Bifidobacterium longum, UniProt A0A087B7X1); experiment: TLC of hydrolysis products; assay type: biochemical; details: 0.5% substrate, optimal conditions (pH 5.0, 45 °C)
T2 construct: gene BLSS_1421; 531 aa (56 kDa) printed; 35-residue signal peptide removed (primer deltaS; starts M-SSNAKN by primer), C-terminal His6, E. coli; caution: same WP id also printed for BflsABF43A (710 aa)
T2 sequence (A0A087B7X1 36-531): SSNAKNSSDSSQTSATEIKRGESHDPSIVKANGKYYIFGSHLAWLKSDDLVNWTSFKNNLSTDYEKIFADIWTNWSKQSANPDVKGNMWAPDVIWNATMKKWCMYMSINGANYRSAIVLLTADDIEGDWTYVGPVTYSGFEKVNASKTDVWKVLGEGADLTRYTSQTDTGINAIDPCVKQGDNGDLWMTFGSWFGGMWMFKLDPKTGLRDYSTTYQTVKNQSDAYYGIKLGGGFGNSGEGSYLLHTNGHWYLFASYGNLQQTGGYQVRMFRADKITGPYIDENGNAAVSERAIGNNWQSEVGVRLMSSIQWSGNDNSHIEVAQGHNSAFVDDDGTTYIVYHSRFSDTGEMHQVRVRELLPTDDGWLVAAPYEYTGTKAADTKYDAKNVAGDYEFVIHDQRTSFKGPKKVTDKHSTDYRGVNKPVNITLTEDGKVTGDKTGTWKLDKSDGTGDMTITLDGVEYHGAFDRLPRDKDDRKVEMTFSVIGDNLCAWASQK

OC[C@@H]1O[C@@H](OC[C@@H]2O[C@@H](OC[C@@H]3O[C@@H](OC[C@@H]4O[C@@H](OC[C@@H]5O[C@@H](OC[C@@H]6OC(O)[C@H](O)[C@H]6O)[C@H](O)[C@H]5O)[C@H](O)[C@H]4O)[C@H](O)[C@H]3O)[C@H](O)[C@H]2O)[C@H](O)[C@H]1O (some centres unmarked) [A6, arabinohexaose]
TLC of hydrolysis products [1]: both ABNs demonstrated detectable hydrolytic activities to produce A2 and arabinotetraose (A4) | TLC of hydrolysis products [2]: both ABNs demonstrated detectable hydrolytic activities to produce A2 and arabinotetraose (A4)
